The subject of test [1] is Staphylococcus aureus. Briefly: Antibacterial activity against Staphylococcus aureus assessed as inhibition of bacterial growth by CLSI based continuous dilution method. In kind it is functional.
Test [2] concerns Staphylococcus aureus. Briefly: Antibacterial activity against Staphylococcus aureus ATCC 25923 assessed as inhibition of bacterial growth by CLSI based continuous dilution method. In kind it is functional.
The subject of test [3] is Pseudomonas aeruginosa. Briefly: Antibacterial activity against Pseudomonas aeruginosa ATCC 27853 assessed as inhibition of bacterial growth by CLSI based continuous dilution method. In kind it is functional.
In test [4] the test system is Staphylococcus aureus. Briefly: Antibacterial activity against Staphylococcus aureus ATCC 29213 assessed as inhibition of bacterial growth by CLSI based continuous dilution method. In kind it is functional.
Test [5] relates to Escherichia coli. Briefly: Antibacterial activity against Escherichia coli assessed as inhibition of bacterial growth by CLSI based continuous dilution method. In kind it is functional.
The test system of test [6] is Klebsiella pneumoniae. Briefly: Antibacterial activity against Klebsiella pneumoniae assessed as inhibition of bacterial growth by CLSI based continuous dilution method. In kind it is functional.
The subject of test [7] is Staphylococcus aureus. Briefly: Antibacterial activity against methicillin-resistant Staphylococcus aureus assessed as inhibition of bacterial growth by CLSI based continuous dilution method. In kind it is functional.
For test [8], the system named is Escherichia coli. Briefly: Antibacterial activity against Escherichia coli ATCC 25922 assessed as inhibition of bacterial growth by CLSI based continuous dilution method. In kind it is functional.
In test [9] the test system is Aspergillus fumigatus. Briefly: Antifungal activity against Aspergillus fumigatus assessed as inhibition of fungal growth by CLSI based continuous dilution method. In kind it is functional, organism-based.
The test system of test [10] is Pseudomonas aeruginosa. Briefly: Antibacterial activity against Pseudomonas aeruginosa assessed as inhibition of bacterial growth by CLSI based continuous dilution method. In kind it is functional.
The subject of test [11] is Acinetobacter baumannii. Briefly: Antibacterial activity against Acinetobacter baumannii assessed as inhibition of bacterial growth by CLSI based continuous dilution method. In kind it is functional.
The test system of test [12] is Enterococcus faecalis. Briefly: Antibacterial activity against Enterococcus faecalis assessed as inhibition of bacterial growth by CLSI based continuous dilution method. In kind it is functional.
Test [13] concerns Pseudomonas aeruginosa. Briefly: Induction of drug resistance in Pseudomonas aeruginosa assessed as reduction in susceptibility measured after 6 passages. In kind it is functional.
Test [14] relates to Pseudomonas aeruginosa. Briefly: Induction of drug resistance in Pseudomonas aeruginosa assessed as fold increase in MIC measured after 11 passages. In kind it is functional.

Values after ≈ are worked out from the molar mass of the structure shown. Active and inactive are the calls of the source. The calls are words filed in the database; no cut-off is given here.

As a reminder, the MIC is the lowest concentration found to suppress growth. Consider `CCCO/N=C/c1cc(OC)c(OCC(O)Cn2c([N+](=O)[O-])cnc2C)c2c1CC1c3cc4c(cc3CCN1C2)OCO4` (stereo not drawn), for which the MIC stood at 863 µM (≈ 512 µg/mL) in test [1]; 215 µM (≈ 128 µg/mL) in test [2]; 863 µM (≈ 512 µg/mL) in [3]; 863 µM (≈ 512 µg/mL) in [4]; 863 µM (≈ 512 µg/mL) in test [5]; 863 µM (≈ 512 µg/mL) in test [6]. For the same compound, the MIC in test [7] was found to be 863 µM (≈ 512 µg/mL); in test [8] it was 215 µM (≈ 128 µg/mL); in test [10], 863 µM (≈ 512 µg/mL); in [11], 863 µM (≈ 512 µg/mL); in test [12] it was 863 µM (≈ 512 µg/mL). The result in test [9] was Active.

Consider `C=CCO/N=C/c1cc(OC)c(OCC(O)Cn2c([N+](=O)[O-])cnc2C)c2c1CC1c3cc4c(cc3CCN1C2)OCO4` (stereo not drawn), for which the MIC in test [1] was determined as 108 µM (≈ 63.9 µg/mL); in [2] it was 54 µM (≈ 31.9 µg/mL); in [3], 54 µM (≈ 31.9 µg/mL); in [4], 216 µM (≈ 128 µg/mL); in test [5] it was 433 µM (≈ 256 µg/mL); in test [6] it was 54 µM (≈ 31.9 µg/mL). For the same compound, the MIC in [7] amounted to 54 µM (≈ 31.9 µg/mL); in test [8] it was 216 µM (≈ 128 µg/mL); in [10], 216 µM (≈ 128 µg/mL); in test [11], 216 µM (≈ 128 µg/mL); in test [12] it was 216 µM (≈ 128 µg/mL). For the same compound, the outcome in test [9] was Active.

As for `CCn1cc(C(=O)O)c(=O)c2cc(F)c(N3CCNCC3)cc21` [NORFLOXACIN], the MIC in test [1] came to 25 µM (≈ 7.98 µg/mL); in test [2], 100 µM (≈ 31.9 µg/mL); in test [3], 12 µM (≈ 3.83 µg/mL); in test [4] it was 3 µM (≈ 0.958 µg/mL); in [5] it was 50 µM (≈ 16 µg/mL); in [6], 25 µM (≈ 7.98 µg/mL). The minimal inhibitory concentration (MIC) in [7] stood at 25 µM (≈ 7.98 µg/mL); in test [8], 25 µM (≈ 7.98 µg/mL); in [10], 50 µM (≈ 16 µg/mL); in [11], 25 µM (≈ 7.98 µg/mL); in test [12], 6 µM (≈ 1.92 µg/mL). Also, the result in [13] was Active. In addition, in [14], the fold change (FC) turned out to be 8.

Take `COc1cc(/C=N/O)c2c(c1OCC(O)Cn1c([N+](=O)[O-])cnc1C)CN1CCc3cc4c(cc3C1C2)OCO4` (stereo not drawn): the minimum inhibitory concentration (MIC) in test [1] stood at 58 µM (≈ 32 µg/mL); in [2], 58 µM (≈ 32 µg/mL); in test [3], 58 µM (≈ 32 µg/mL); in test [4], 232 µM (≈ 128 µg/mL); in test [5], 15 µM (≈ 8.27 µg/mL); in test [6] it was 464 µM (≈ 256 µg/mL). Besides, the minimum inhibitory concentration (MIC) was determined as 116 µM (≈ 64 µg/mL) in test [7]; 29 µM (≈ 16 µg/mL) in test [8]; 116 µM (≈ 64 µg/mL) in test [10]; 58 µM (≈ 32 µg/mL) in test [11]; 29 µM (≈ 16 µg/mL) in [12]. Besides, the result in test [9] was Active.

As for `Cc1ncc([N+](=O)[O-])n1CCO` [METRONIDAZOLE], the MIC in test [1] was 1500 µM (≈ 256 µg/mL); in test [2] it was 1500 µM (≈ 256 µg/mL); in test [3] it was 1500 µM (≈ 256 µg/mL); in test [4], 1500 µM (≈ 256 µg/mL); in test [5] it was 1500 µM (≈ 256 µg/mL); in test [6], 374 µM (≈ 64 µg/mL). The MIC in [7] worked out at 1500 µM (≈ 256 µg/mL); in test [8] it was 1500 µM (≈ 256 µg/mL); in [10], 1500 µM (≈ 256 µg/mL); in test [11], 1500 µM (≈ 256 µg/mL); in test [12] it was 748 µM (≈ 128 µg/mL).

Consider `CCCCCCO/N=C/c1cc(OC)c(OCC(O)Cn2c([N+](=O)[O-])cnc2C)c2c1CC1c3cc4c(cc3CCN1C2)OCO4` (stereo not drawn), for which the MIC in [1] was 805 µM (≈ 512 µg/mL); in [2] it was 50 µM (≈ 31.8 µg/mL); in test [3], 805 µM (≈ 512 µg/mL); in [4] it was 805 µM (≈ 512 µg/mL); in test [5] it was 805 µM (≈ 512 µg/mL); in [6] it was 805 µM (≈ 512 µg/mL). In addition, the MIC in test [7], in test [8], in test [10], in [11] and in [12] was 805 µM (≈ 512 µg/mL) each time. Besides, the result in test [9] was Active.

As for `COc1cc(/C=N/OC(C)(C)C)c2c(c1OCC(O)Cn1c([N+](=O)[O-])cnc1C)CN1CCc3cc4c(cc3C1C2)OCO4` (stereo not drawn), the minimum inhibitory concentration (MIC) in test [1] worked out at 105 µM (≈ 63.8 µg/mL); in test [2] it was 52 µM (≈ 31.6 µg/mL); in [3], 52 µM (≈ 31.6 µg/mL); in [4], 211 µM (≈ 128 µg/mL); in test [5], 422 µM (≈ 256 µg/mL); in [6] it was 52 µM (≈ 31.6 µg/mL). Moreover, the minimum inhibitory concentration (MIC) in test [7] was found to be 52 µM (≈ 31.6 µg/mL); in test [8], 211 µM (≈ 128 µg/mL); in test [10] it was 211 µM (≈ 128 µg/mL); in test [11] it was 211 µM (≈ 128 µg/mL); in [12], 211 µM (≈ 128 µg/mL). Further, the result in [9] was Active.

For the compound `CCCCO/N=C/c1cc(OC)c(OCC(O)Cn2c([N+](=O)[O-])cnc2C)c2c1CC1c3cc4c(cc3CCN1C2)OCO4` (stereo not drawn), the minimum inhibitory concentration (MIC) in test [1], in test [2], in [3], in test [4], in test [5] and in [6] was 843 µM (≈ 512 µg/mL) throughout. The MIC in test [7], in test [8], in [10], in test [11] and in [12] was 843 µM (≈ 512 µg/mL) throughout. Also, the outcome in test [9] was Active.

For `CCO/N=C/c1cc(OC)c(OCC(O)Cn2c([N+](=O)[O-])cnc2C)c2c1CC1c3cc4c(cc3CCN1C2)OCO4` (stereo not drawn), the minimum inhibitory concentration (MIC) in [1], in [2], in test [3], in test [4], in test [5] and in test [6] was 883 µM (≈ 512 µg/mL) throughout. In addition, the minimum inhibitory concentration (MIC) in [7], in test [8], in [10], in test [11] and in [12] was 883 µM (≈ 512 µg/mL) in each case. The result in test [9] was Active.

On to `CO/N=C/c1cc(OC)c(OCC(O)Cn2c([N+](=O)[O-])cnc2C)c2c1CC1c3cc4c(cc3CCN1C2)OCO4` (stereo not drawn), for which the MIC in test [1] is 452 µM (≈ 256 µg/mL); in [2], 56 µM (≈ 31.7 µg/mL); in [3], 113 µM (≈ 63.9 µg/mL); in [4], 905 µM (≈ 512 µg/mL); in [5], 905 µM (≈ 512 µg/mL); in test [6] it was 905 µM (≈ 512 µg/mL). Also, the MIC in [7] was determined as 905 µM (≈ 512 µg/mL); in [8] it was 905 µM (≈ 512 µg/mL); in test [10] it was 905 µM (≈ 512 µg/mL); in test [11], 905 µM (≈ 512 µg/mL); in test [12] it was 226 µM (≈ 128 µg/mL). The result in [9] was Active.

Turning to `COc1ccc2cc3[n+](cc2c1OC)CCc1cc2c(cc1-3)OCO2` [BERBERINE], the MIC in test [1] stood at 380 µM; in test [2], 380 µM; in test [3], 380 µM; in [4], 190 µM; in test [5], 380 µM; in test [6] it was 190 µM. In addition, the MIC in test [7] turned out to be 761 µM; in test [8], 380 µM; in [10], 1520 µM; in test [11] it was 190 µM; in [12], 380 µM.

As for `CCCCCO/N=C/c1cc(OC)c(OCC(O)Cn2c([N+](=O)[O-])cnc2C)c2c1CC1c3cc4c(cc3CCN1C2)OCO4` (stereo not drawn), the minimal inhibitory concentration (MIC) in test [1], in test [2], in test [3], in test [4], in [5] and in test [6] was 824 µM (≈ 512 µg/mL) each time. For the same compound, the MIC in test [7] was found to be 824 µM (≈ 512 µg/mL); in [8], 206 µM (≈ 128 µg/mL); in test [10] it was 824 µM (≈ 512 µg/mL); in test [11], 206 µM (≈ 128 µg/mL); in test [12], 824 µM (≈ 512 µg/mL). In test [9], the result was Active.

The values are drawn from ChEMBL document CHEMBL5214952, “Unique iminotetrahydroberberine-corbelled metronidazoles as potential membrane active broad-spectrum antibacterial agents” (Bioorg Med Chem Lett, 2022).
